{"source": "patent US7560473B2", "about": "(Institute of Pharmacology and Toxicology Academy of …, priority 2001, dated 2009)", "tested_on": "SHRsp", "assay": "Prophylaxis and treatment of SHRsp cerebral apoplexy", "assay_type": "in vivo, rats", "settings": "for Survival time: control 4.6 ± 3.8; for Survival time / Period needed for onset of cerebral apoplexy: means ± SD; for Period needed for onset of cerebral apoplexy: control 48.3 ± 7.4; for Death rate of cerebral apoplexy / Rate of cerebral apoplexy: n 12; for Death rate of cerebral apoplexy: control 50.0; for Rate of cerebral apoplexy: control 83.3", "protocol": "Biological activity experiment 8 the prophylaxis and treatment of cerebral apoplexy with compound 1 of formula Ia\nThe methods of biological activity experiments were carried out as follows: Desired concentration of compound 1 was prepared with distilled water, while desired concentration of nimodipine was prepared with market available Jinglongyu^T oil. 30 male and 30 female SHRsp (10 weeks old, 120-180 g) were purchased from the vascular disease research center of Academy of Military Medical Science. All SHRsp were divided randomly into five groups based on blood pressure, body weight and sex: control group (fed with equal amount of Jinglongyu^T oil), […], […], […], and 4.0 mg.kg^−1d^−1 nimodipine treated group. Each group contained 12 animals and 4-5 animals were fed in a cage. The feedstaff (containing 23-24% protein) was purchased from experimental animal center of Academy of Military Medical Science. The animals were fed with tap water containing 1% NaCl to accelerate the onset of cerebral apoplexy. 12 normal WKY rats (with the same age and sex with the above) were selected as control, and fed with tap water and the same feedstuff. When reached 11 weeks old, the animals were fed with drugs for experiments.", "note": "Marks after values point to notes of the source that are not given here.", "data": [{"molecule": "CC(C)NC(C)(C)C(C)C", "note": "[compound 1, N-(1-methylethyl)-2,3-dimethyl-2-butylamine]", "values": [{"measurement": "Survival time", "setting": "0.25 mg · kg^−1d^−1 fed", "result": "7.2 ± 5.3", "unit": "days"}, {"measurement": "Period needed for onset of cerebral apoplexy", "setting": "0.25 mg · kg^−1d^−1 fed", "result": "58.6 ± 14.1", "unit": "days"}, {"measurement": "Death rate of cerebral apoplexy", "setting": "0.25 mg · kg^−1d^−1 fed", "result": 27.3, "unit": "%"}, {"measurement": "Rate of cerebral apoplexy", "setting": "0.25 mg · kg^−1d^−1 fed", "result": 72.7, "unit": "%"}, {"measurement": "Survival time", "setting": "1 mg · kg^−1d^−1 fed", "result": "10.2 ± 4.1", "unit": "days"}, {"measurement": "Period needed for onset of cerebral apoplexy", "setting": "1 mg · kg^−1d^−1 fed", "result": "60.8 ± 18.9", "unit": "days"}, {"measurement": "Death rate of cerebral apoplexy", "setting": "1 mg · kg^−1d^−1 fed", "result": 20.0, "unit": "%"}, {"measurement": "Rate of cerebral apoplexy", "setting": "1 mg · kg^−1d^−1 fed", "result": "40.0* %"}, {"measurement": "Survival time", "setting": "4 mg · kg^−1d^−1 fed", "result": "11.8 ± 3.2", "unit": "days"}, {"measurement": "Period needed for onset of cerebral apoplexy", "setting": "4 mg · kg^−1d^−1 fed", "result": "68.6 ± 16.5", "unit": "days"}, {"measurement": "Death rate of cerebral apoplexy", "setting": "4 mg · kg^−1d^−1 fed", "result": "8.3* %"}, {"measurement": "Rate of cerebral apoplexy", "setting": "4 mg · kg^−1d^−1 fed", "result": "33.3* %"}, {"measurement": "nerve symptom of cerebral apoplexy (in words)", "setting": "SHRsp", "result": "significantly improve the nerve symptom"}]}]}
